Laboratory results taken from patent publication US10189841B2, “Purinones as ubiquitin-specific protease 1 inhibitors” (Forma Therapeutics, Inc., priority 2015, dated 2019).

Biological target: USP1 (construct USP1 (I-785, GG670, 671AA)/UAF1 (I-677)-Flag) (Homo sapiens (Human), UniProt O94782, G670A/G671A)
Assay: Ubiquitin-Rhodamine 110 assay for USP1 activity
Format: biochemical
Conditions: USP1/UAF1 25 pM, Ub-Rh110 25 nM, 30 min preincubation
Outline: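 Two formats with the USP1/UAF1 complex and 25 nM ubiquitin-rhodamine 110 in pH 8.0 Tris buffer with calcium, glutathione and detergent. Single-point screening used 10 µM, 100 pM enzyme and 45 min. Inhibition was set against no-enzyme and DMSO wells.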

USP1 (construct USP1 (I-785, GG670, 671AA)/UAF1 (I-677)-Flag), sequence (O94782 whole entry G670A/G671A): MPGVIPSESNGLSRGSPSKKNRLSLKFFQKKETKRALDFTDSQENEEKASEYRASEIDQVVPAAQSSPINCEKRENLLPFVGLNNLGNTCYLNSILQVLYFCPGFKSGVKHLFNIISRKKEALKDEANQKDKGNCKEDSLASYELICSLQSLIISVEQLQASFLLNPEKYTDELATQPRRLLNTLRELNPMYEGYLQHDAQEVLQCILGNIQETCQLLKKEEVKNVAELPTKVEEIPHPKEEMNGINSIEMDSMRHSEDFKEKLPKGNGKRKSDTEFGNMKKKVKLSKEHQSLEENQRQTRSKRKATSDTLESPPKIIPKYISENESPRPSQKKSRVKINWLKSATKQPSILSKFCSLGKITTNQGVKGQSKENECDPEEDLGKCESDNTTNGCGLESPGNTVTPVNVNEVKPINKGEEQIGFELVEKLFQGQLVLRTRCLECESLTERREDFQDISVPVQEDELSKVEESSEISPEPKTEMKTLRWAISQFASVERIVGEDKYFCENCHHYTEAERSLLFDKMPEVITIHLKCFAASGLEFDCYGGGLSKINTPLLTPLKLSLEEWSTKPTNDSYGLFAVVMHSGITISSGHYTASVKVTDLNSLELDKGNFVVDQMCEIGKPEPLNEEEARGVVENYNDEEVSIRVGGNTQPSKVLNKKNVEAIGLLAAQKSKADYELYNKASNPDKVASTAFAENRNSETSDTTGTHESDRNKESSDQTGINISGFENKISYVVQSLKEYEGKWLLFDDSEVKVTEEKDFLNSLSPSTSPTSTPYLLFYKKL
USP1 (construct USP1 (I-785, GG670, 671AA)/UAF1 (I-677)-Flag), sequence (Q8TAF3 whole entry partner): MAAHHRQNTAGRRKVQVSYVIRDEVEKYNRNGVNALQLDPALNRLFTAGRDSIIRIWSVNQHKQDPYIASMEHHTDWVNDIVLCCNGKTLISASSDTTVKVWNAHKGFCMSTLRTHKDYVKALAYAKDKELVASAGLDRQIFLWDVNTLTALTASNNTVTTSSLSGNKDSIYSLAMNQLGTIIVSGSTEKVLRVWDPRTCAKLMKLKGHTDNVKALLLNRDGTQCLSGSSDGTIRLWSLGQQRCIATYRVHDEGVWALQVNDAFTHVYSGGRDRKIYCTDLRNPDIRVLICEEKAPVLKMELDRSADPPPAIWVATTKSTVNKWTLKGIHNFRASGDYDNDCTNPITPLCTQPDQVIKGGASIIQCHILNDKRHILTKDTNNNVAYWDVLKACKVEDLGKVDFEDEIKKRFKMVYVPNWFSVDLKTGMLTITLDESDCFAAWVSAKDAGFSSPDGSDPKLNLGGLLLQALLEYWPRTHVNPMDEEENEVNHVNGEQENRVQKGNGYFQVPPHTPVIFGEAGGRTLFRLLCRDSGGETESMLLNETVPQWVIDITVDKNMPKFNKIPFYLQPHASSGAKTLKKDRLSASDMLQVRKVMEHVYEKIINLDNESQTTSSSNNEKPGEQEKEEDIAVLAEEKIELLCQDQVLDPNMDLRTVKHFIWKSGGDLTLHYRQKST

Row | SMILES | IC50 [nM]
1 | CC(C)c1ccccc1-c1ncc2[nH]c(=O)n(Cc3ccc(C(=O)NCCN(C)C)cc3)c2n1 [Compound I-408, N-(2-(dimethylamino)ethyl)-4-((2-(2-isopropylphenyl)-8-oxo-7,8-dihydro-9H-purin-9-yl)methyl)benzamide] | > 2000
2 | CC(C)c1ccccc1-c1ncc2[nH]c(=O)n(Cc3ccc(C(=O)NCCN4CCCCC4)cc3)c2n1 [Compound I-409, 4-((2-(2-isopropylphenyl)-8-oxo-7,8-dihydro-9H-purin-9-yl)methyl)-N-(2-(piperidin-1-yl)ethyl)benzamide] | > 2000
3 | CC(C)c1ccccc1-c1ncc2[nH]c(=O)n(Cc3ccc(C(=O)N4CCN(C)CC4)cc3)c2n1 [Compound I-410, 2-(2-isopropylphenyl)-9-(4-(4-methylpiperazine-1-carbonyl)benzyl)-7,9-dihydro-8H-purin-8-one] | > 2000
4 | CC(C)c1ccccc1-c1ncc2[nH]c(=O)n(Cc3ccc(C(=O)N4CCCC45COC5)cc3)c2n1 [Compound I-411, 9-(4-(2-oxa-5-azaspiro[3.4]octane-5-carbonyl)benzyl)-2-(2-isopropylphenyl)-7,9-dihydro-8H-purin-8-one] | < 50
5 | COc1ncccc1-c1ncc2[nH]c(=O)n(Cc3ccc(-c4nc(C(F)(F)F)cn4C)cc3)c2n1 [Compound I-412, 2-(2-methoxypyridin-3-yl)-9-(4-(1-methyl-4-(trifluoromethyl)-1H-imidazol-2-yl)benzyl)-7,9-dihydro-8H-purin-8-one] | < 50
6 | CCCOc1ncccc1-c1ncc2[nH]c(=O)n(Cc3ccc(-c4nc(C(F)(F)F)cn4C)cc3)c2n1 [Compound I-413, 9-(4-(1-methyl-4-(trifluoromethyl)-1H-imidazol-2-yl)benzyl)-2-(2-propoxypyridin-3-yl)-7,9-dihydro-8H-purin-8-one] | < 50
7 | Cn1cc(C(F)(F)F)nc1-c1ccc(Cn2c(=O)[nH]c3cnc(-c4cccnc4OCC4CC4)nc32)cc1 [Compound I-414, 2-(2-(cyclopropylmethoxy)pyridin-3-yl)-9-(4-(1-methyl-4-(trifluoromethyl)-1H-imidazol-2-yl)benzyl)-7,9-dihydro-8H-purin-8-one] | < 50
8 | CCOCCOc1ncccc1-c1ncc2[nH]c(=O)n(Cc3ccc(-c4nc(C(F)(F)F)cn4C)cc3)c2n1 [Compound I-415, 2-(2-(2-ethoxyethoxy)pyridin-3-yl)-9-(4-(1-methyl-4-(trifluoromethyl)-1H-imidazol-2-yl)benzyl)-7,9-dihydro-8H-purin-8-one] | < 50
9 | CC(C)Oc1ncccc1-c1ncc2[nH]c(=O)n(Cc3ccc(-c4nc(C(F)(F)F)cn4C)cc3)c2n1 [Compound I-416, 2-(2-isopropoxypyridin-3-yl)-9-(4-(1-methyl-4-(trifluoromethyl)-1H-imidazol-2-yl)benzyl)-7,9-dihydro-8H-purin-8-one] | < 50
10 | CCC(C)Oc1ncccc1-c1ncc2[nH]c(=O)n(Cc3ccc(-c4nc(C(F)(F)F)cn4C)cc3)c2n1 (stereo not drawn) [Compound I-417, 2-(2-(sec-butoxy)pyridin-3-yl)-9-(4-(1-methyl-4-(trifluoromethyl)-1H-imidazol-2-yl)benzyl)-7,9-dihydro-8H-purin-8-one] | < 50
11 | CC(Oc1ncccc1-c1ncc2[nH]c(=O)n(Cc3ccc(-c4nc(C(F)(F)F)cn4C)cc3)c2n1)C(F)(F)F (stereo not drawn) [Compound I-418, 9-(4-(1-methyl-4-(trifluoromethyl)-1H-imidazol-2-yl)benzyl)-2-(2-((1,1,1-trifluoropropan-2-yl)oxy)pyridin-3-yl)-7,9-dihydro-8H-purin-8-one] | < 50
12 | Cn1cc(C(F)(F)F)nc1-c1ccc(Cn2c(=O)[nH]c3cnc(-c4cccnc4OC4CCC4)nc32)cc1 [Compound I-419, 2-(2-cyclobutoxypyridin-3-yl)-9-(4-(1-methyl-4-(trifluoromethyl)-1H-imidazol-2-yl)benzyl)-7,9-dihydro-8H-purin-8-one] | < 50
13 | Cn1cc(C(F)(F)F)nc1-c1ccc(Cn2c(=O)[nH]c3cnc(-c4cccnc4OC4CC4)nc32)cc1 [Compound I-420, 2-(2-cyclopropoxypyridin-3-yl)-9-(4-(1-methyl-4-(trifluoromethyl)-1H-imidazol-2-yl)benzyl)-7,9-dihydro-8H-purin-8-one] | < 50
14 | CCOc1ncccc1-c1ncc2[nH]c(=O)n(Cc3ccc(-c4nc(C(F)(F)F)cn4C)cc3)c2n1 [Compound I-421, 2-(2-ethoxypyridin-3-yl)-9-(4-(1-methyl-4-(trifluoromethyl)-1H-imidazol-2-yl)benzyl)-7,9-dihydro-8H-purin-8-one] | < 50
15 | CC(C)COc1ncccc1-c1ncc2[nH]c(=O)n(Cc3ccc(-c4nc(C(F)(F)F)cn4C)cc3)c2n1 [Compound I-422, 2-(2-isobutoxypyridin-3-yl)-9-(4-(1-methyl-4-(trifluoromethyl)-1H-imidazol-2-yl)benzyl)-7,9-dihydro-8H-purin-8-one] | < 50
16 | COCCOc1ncccc1-c1ncc2[nH]c(=O)n(Cc3ccc(-c4nc(C(F)(F)F)cn4C)cc3)c2n1 [Compound I-423, 2-(2-(2-methoxyethoxy)pyridin-3-yl)-9-(4-(1-methyl-4-(trifluoromethyl)-1H-imidazol-2-yl)benzyl)-7,9-dihydro-8H-purin-8-one] | 50 to 200
17 | Cn1cc(C(F)(F)F)nc1-c1ccc(Cn2c(=O)[nH]c3cnc(-c4cccnc4OCC4CCCO4)nc32)cc1 (stereo not drawn) [Compound I-424, 9-(4-(1-methyl-4-(trifluoromethyl)-1H-imidazol-2-yl)benzyl)-2-(2-((tetrahydrofuran-2-yl)methoxy)pyridin-3-yl)-7,9-dihydro-8H-purin-8-one] | < 50
18 | Cn1cc(C(F)(F)F)nc1-c1ccc(Cn2c(=O)[nH]c3cnc(-c4cccnc4OCC4CCOC4)nc32)cc1 (stereo not drawn) [Compound I-425, 9-(4-(1-methyl-4-(trifluoromethyl)-1H-imidazol-2-yl)benzyl)-2-(2-((tetrahydrofuran-3-yl)methoxy)pyridin-3-yl)-7,9-dihydro-8H-purin-8-one] | < 50
19 | COC(C)CCOc1ncccc1-c1ncc2[nH]c(=O)n(Cc3ccc(-c4nc(C(F)(F)F)cn4C)cc3)c2n1 (stereo not drawn) [Compound I-426, 2-(2-(3-methoxybutoxy)pyridin-3-yl)-9-(4-(1-methyl-4-(trifluoromethyl)-1H-imidazol-2-yl)benzyl)-7,9-dihydro-8H-purin-8-one] | < 50
20 | CCC(CC)Oc1ncccc1-c1ncc2[nH]c(=O)n(Cc3ccc(-c4nc(C(F)(F)F)cn4C)cc3)c2n1 [Compound I-427, 9-(4-(1-methyl-4-(trifluoromethyl)-1H-imidazol-2-yl)benzyl)-2-(2-(pentan-3-yloxy)pyridin-3-yl)-7,9-dihydro-8H-purin-8-one] | < 50
21 | CCC(COC)Oc1ncccc1-c1ncc2[nH]c(=O)n(Cc3ccc(-c4nc(C(F)(F)F)cn4C)cc3)c2n1 (stereo not drawn) [Compound I-428, 2-(2-((1-methoxybutan-2-yl)oxy)pyridin-3-yl)-9-(4-(1-methyl-4-(trifluoromethyl)-1H-imidazol-2-yl)benzyl)-7,9-dihydro-8H-purin-8-one] | 50 to 200
22 | CN(C)CCOc1ncccc1-c1ncc2[nH]c(=O)n(Cc3ccc(-c4nc(C(F)(F)F)cn4C)cc3)c2n1 [Compound I-429, 2-(2-(2-(dimethylamino)ethoxy)pyridin-3-yl)-9-(4-(1-methyl-4-(trifluoromethyl)-1H-imidazol-2-yl)benzyl)-7,9-dihydro-8H-purin-8-one] | 200 to 2000
23 | CC(C)c1ccccc1-c1ncc2[nH]c(=O)n(Cc3ccc(-c4nc(C(F)(F)F)cn4C4CNC4)cc3)c2n1 [Compound I-430, 9-(4-(1-(azetidin-3-yl)-4-(trifluoromethyl)-1H-imidazol-2-yl)benzyl)-2-(2-isopropylphenyl)-7,9-dihydro-8H-purin-8-one] | < 50
24 | CC(C)c1ccccc1-c1ncc2[nH]c(=O)n(Cc3ccc(-n4ccc(C5CCNCC5)n4)cc3)c2n1 [Compound I-431, 2-(2-isopropylphenyl)-9-(4-(3-(piperidin-4-yl)-1H-pyrazol-1-yl)benzyl)-7,9-dihydro-8H-purin-8-one] | 50 to 200
25 | CC(C)c1ccccc1-c1ncc2[nH]c(=O)n(Cc3ccc(-n4ccc(N5CCNCC5)n4)cc3)c2n1 [Compound I-432, 2-(2-isopropylphenyl)-9-(4-(3-(piperazin-1-yl)-1H-pyrazol-1-yl)benzyl)-7,9-dihydro-8H-purin-8-one] | 200 to 2000
26 | CC(C)c1ccccc1-c1ncc2c(n1)n(Cc1ccc(-n3ccc(C4CCNCC4)n3)cc1)c(=O)n2C [Compound I-433, 2-(2-isopropylphenyl)-7-methyl-9-(4-(3-(piperidin-4-yl)-1H-pyrazol-1-yl)benzyl)-7,9-dihydro-8H-purin-8-one] | 200 to 2000
27 | CC(C)c1c(F)cccc1-c1ncc2[nH]c(=O)n(Cc3ccc(-n4ccc(C5CCNCC5)n4)cc3)c2n1 [Compound I-434, 2-(3-fluoro-2-isopropylphenyl)-9-(4-(3-(piperidin-4-yl)-1H-pyrazol-1-yl)benzyl)-7,9-dihydro-8H-purin-8-one] | 50 to 200
28 | CC(C)c1ncccc1-c1ncc2[nH]c(=O)n(Cc3ccc(-n4ccc(C5CCNCC5)n4)cc3)c2n1 [Compound I-435, 2-(2-isopropylpyridin-3-yl)-9-(4-(3-(piperidin-4-yl)-1H-pyrazol-1-yl)benzyl)-7,9-dihydro-8H-purin-8-one] | > 2000
29 | CC(C)c1ccccc1-c1ncc2c(n1)n(Cc1ccc(-c3nc(C(F)(F)F)cn3C3CNC3)cc1)c(=O)n2C [Compound I-436, 9-(4-(1-(azetidin-3-yl)-4-(trifluoromethyl)-1H-imidazol-2-yl)benzyl)-2-(2-isopropylphenyl)-7-methyl-7,9-dihydro-8H-purin-8-one] | < 50
30 | CC(C)c1ccccc1-c1ncc2[nH]c(=O)n(Cc3ccc(-c4ncc[nH]4)cc3)c2n1 [Compound I-437, 9-(4-(1H-imidazol-2-yl)benzyl)-2-(2-isopropylphenyl)-7,9-dihydro-8H-purin-8-one] | < 50
